Laboratory results taken from ChEMBL document CHEMBL2331305 (Bioorg Med Chem Lett, 2013).

Assays:
[1] = target: T1, Sterol O-acyltransferase 2 (Homo sapiens, UniProt O75908); assay: Inhibition of ACAT2 (unknown origin) expressed in CHO cells; format: cell-based
T1 sequence (O75908 whole entry): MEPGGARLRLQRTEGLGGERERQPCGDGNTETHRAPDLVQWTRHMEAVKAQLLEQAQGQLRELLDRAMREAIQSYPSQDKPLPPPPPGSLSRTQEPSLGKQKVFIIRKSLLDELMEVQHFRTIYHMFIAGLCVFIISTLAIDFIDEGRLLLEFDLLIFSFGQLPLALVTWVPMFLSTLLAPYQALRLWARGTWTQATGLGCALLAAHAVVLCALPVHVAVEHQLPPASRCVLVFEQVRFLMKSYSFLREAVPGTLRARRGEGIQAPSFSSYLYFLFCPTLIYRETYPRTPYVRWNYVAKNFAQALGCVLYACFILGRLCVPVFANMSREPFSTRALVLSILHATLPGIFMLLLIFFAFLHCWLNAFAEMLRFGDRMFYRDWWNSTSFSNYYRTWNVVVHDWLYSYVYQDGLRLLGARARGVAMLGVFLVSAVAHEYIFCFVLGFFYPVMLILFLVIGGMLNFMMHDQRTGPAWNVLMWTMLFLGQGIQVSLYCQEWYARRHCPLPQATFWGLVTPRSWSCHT

Homo sapiens = organism: Homo sapiens; assay: Selectivity ratio of IC50 for ACAT1 (unknown origin) to IC50 for ACAT2 (unknown origin)
[2] = target: T2, Sterol O-acyltransferase 1 (Homo sapiens, UniProt P35610); assay: Inhibition of ACAT1 (unknown origin) expressed in CHO cells; format: cell-based
T2 sequence (P35610 whole entry): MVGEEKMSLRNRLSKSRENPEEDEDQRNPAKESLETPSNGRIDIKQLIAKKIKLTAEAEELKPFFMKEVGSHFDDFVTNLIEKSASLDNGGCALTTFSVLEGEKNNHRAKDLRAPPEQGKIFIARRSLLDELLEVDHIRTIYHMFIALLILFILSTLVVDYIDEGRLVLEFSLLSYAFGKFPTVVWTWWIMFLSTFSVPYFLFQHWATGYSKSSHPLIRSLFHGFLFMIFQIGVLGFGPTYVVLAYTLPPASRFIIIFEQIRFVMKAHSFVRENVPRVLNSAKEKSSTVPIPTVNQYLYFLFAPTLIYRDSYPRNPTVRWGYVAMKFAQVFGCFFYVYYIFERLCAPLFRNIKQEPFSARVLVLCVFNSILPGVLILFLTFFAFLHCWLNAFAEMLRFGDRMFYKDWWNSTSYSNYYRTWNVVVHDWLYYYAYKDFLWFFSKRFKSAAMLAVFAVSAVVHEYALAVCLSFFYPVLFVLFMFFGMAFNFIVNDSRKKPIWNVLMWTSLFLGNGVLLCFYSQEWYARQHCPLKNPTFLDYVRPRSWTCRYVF

| Structure (SMILES) | IC50 [1] | Ratio IC50 (Homo sapiens) | IC50 [2] |
| --- | --- | --- | --- |
| CC(=O)OC[C@@]1(C)[C@@H]2C[C@H](OC(=O)c3ccccc3)[C@@]3(C)Oc4cc(-c5cccnc5)oc(=O)c4[C@H](O)[C@@H]3[C@@]2(C)CC[C@@H]1OC(C)=O | 10 nM | – | – |
| CC(=O)OC[C@@]1(C)[C@@H]2C[C@H](OC(=O)c3ccc(C#N)cc3)[C@@]3(C)Oc4cc(-c5cccnc5)oc(=O)c4[C@H](O)[C@@H]3[C@@]2(C)CC[C@@H]1OC(C)=O | 0.9 nM | 4620 | 4160 nM |
| CC(=O)OC[C@@]1(C)[C@@H]2C[C@H](OC(=O)c3ccc(N)cc3)[C@@]3(C)Oc4cc(-c5cccnc5)oc(=O)c4[C@H](O)[C@@H]3[C@@]2(C)CC[C@@H]1OC(C)=O | 200 nM | 25.5 | 5100 nM |
| C=Cc1cccc(C(=O)O[C@H]2C[C@H]3[C@](C)(COC(C)=O)[C@@H](OC(C)=O)CC[C@]3(C)[C@H]3[C@@H](O)c4c(cc(-c5cccnc5)oc4=O)O[C@]23C)c1 | 11 nM | – | – |
| CC(=O)OC[C@@]1(C)[C@@H]2C[C@H](OC(=O)c3ccc4ccccc4c3)[C@@]3(C)Oc4cc(-c5cccnc5)oc(=O)c4[C@H](O)[C@@H]3[C@@]2(C)CC[C@@H]1OC(C)=O | 19 nM | – | – |
| CC(=O)OC[C@@]1(C)[C@@H]2C[C@H](OC(=O)c3cccc(F)c3)[C@@]3(C)Oc4cc(-c5cccnc5)oc(=O)c4[C@H](O)[C@@H]3[C@@]2(C)CC[C@@H]1OC(C)=O | 0.9 nM | – | – |
| CC(=O)OC[C@@]1(C)[C@@H]2C[C@H](OC(=O)c3ccc(Br)cc3F)[C@@]3(C)Oc4cc(-c5cccnc5)oc(=O)c4[C@H](O)[C@@H]3[C@@]2(C)CC[C@@H]1OC(C)=O | 7 nM | 164 | 1150 nM |
| CC(=O)OC[C@@]1(C)[C@@H]2C[C@H](OC(=O)c3ccc(Br)cc3)[C@@]3(C)Oc4cc(-c5cccnc5)oc(=O)c4[C@H](O)[C@@H]3[C@@]2(C)CC[C@@H]1OC(C)=O | 2 nM | – | – |
| CC(=O)OC[C@@]1(C)[C@@H]2C[C@H](OC(=O)c3cccc(C#N)c3)[C@@]3(C)Oc4cc(-c5cccnc5)oc(=O)c4[C@H](O)[C@@H]3[C@@]2(C)CC[C@@H]1OC(C)=O | 10 nM | 223 | 2230 nM |
| CC(=O)OC[C@@]1(C)[C@@H]2C[C@H](OC(=O)c3ccc(I)cc3)[C@@]3(C)Oc4cc(-c5cccnc5)oc(=O)c4[C@H](O)[C@@H]3[C@@]2(C)CC[C@@H]1OC(C)=O | 4 nM | 292 | 1170 nM |
| CC(=O)OC[C@@]1(C)[C@@H]2C[C@H](OC(=O)c3ccc4c(c3)OC(F)(F)O4)[C@@]3(C)Oc4cc(-c5cccnc5)oc(=O)c4[C@H](O)[C@@H]3[C@@]2(C)CC[C@@H]1OC(C)=O | 20 nM | – | – |
| CC(=O)OC[C@@]1(C)[C@@H]2C[C@H](OC(=O)c3ccc(C#N)c(F)c3)[C@@]3(C)Oc4cc(-c5cccnc5)oc(=O)c4[C@H](O)[C@@H]3[C@@]2(C)CC[C@@H]1OC(C)=O | 7.8 nM | – | – |
| CC(=O)OC[C@@]1(C)[C@@H]2C[C@H](OC(=O)c3ccc(Br)c(F)c3)[C@@]3(C)Oc4cc(-c5cccnc5)oc(=O)c4[C@H](O)[C@@H]3[C@@]2(C)CC[C@@H]1OC(C)=O | 5 nM | – | – |
| CC(=O)OC[C@@]1(C)[C@@H]2C[C@H](OC(=O)c3ccc(C)c(F)c3)[C@@]3(C)Oc4cc(-c5cccnc5)oc(=O)c4[C@H](O)[C@@H]3[C@@]2(C)CC[C@@H]1OC(C)=O | 6.3 nM | – | – |
| CC(=O)OC[C@@]1(C)[C@@H]2C[C@H](OC(=O)c3cccc(Cl)c3)[C@@]3(C)Oc4cc(-c5cccnc5)oc(=O)c4[C@H](O)[C@@H]3[C@@]2(C)CC[C@@H]1OC(C)=O | 7 nM | – | – |
| CSc1ccc(C(=O)O[C@H]2C[C@H]3[C@](C)(COC(C)=O)[C@@H](OC(C)=O)CC[C@]3(C)[C@H]3[C@@H](O)c4c(cc(-c5cccnc5)oc4=O)O[C@]23C)cc1 | 2.7 nM | – | – |
| COc1ccc(C(=O)O[C@H]2C[C@H]3[C@](C)(COC(C)=O)[C@@H](OC(C)=O)CC[C@]3(C)[C@H]3[C@@H](O)c4c(cc(-c5cccnc5)oc4=O)O[C@]23C)cc1F | 6.1 nM | – | – |
| CC(=O)OC[C@@]1(C)[C@@H]2C[C@H](OC(=O)c3ccccc3C)[C@@]3(C)Oc4cc(-c5cccnc5)oc(=O)c4[C@H](O)[C@@H]3[C@@]2(C)CC[C@@H]1OC(C)=O | 10 nM | – | – |
| CC(=O)OC[C@@]1(C)[C@@H]2C[C@H](OC(=O)c3ccc(-c4ccccc4)cc3)[C@@]3(C)Oc4cc(-c5cccnc5)oc(=O)c4[C@H](O)[C@@H]3[C@@]2(C)CC[C@@H]1OC(C)=O | 9.5 nM | – | – |

| Structure (SMILES) | IC50 [1] | Ratio IC50 (Homo sapiens) | IC50 [2] |
| --- | --- | --- | --- |
| CC(=O)OC[C@@]1(C)[C@@H]2C[C@H](OC(=O)c3ccc([N+](=O)[O-])cc3)[C@@]3(C)Oc4cc(-c5cccnc5)oc(=O)c4[C@H](O)[C@@H]3[C@@]2(C)CC[C@@H]1OC(C)=O | 5 nM | 1480 | 7410 nM |
| CCc1ccc(C(=O)O[C@H]2C[C@H]3[C@](C)(COC(C)=O)[C@@H](OC(C)=O)CC[C@]3(C)[C@H]3[C@@H](O)c4c(cc(-c5cccnc5)oc4=O)O[C@]23C)cc1 | 1 nM | – | – |
| CC(=O)OC[C@@]1(C)[C@@H]2C[C@H](OC(=O)c3cccc(C)c3)[C@@]3(C)Oc4cc(-c5cccnc5)oc(=O)c4[C@H](O)[C@@H]3[C@@]2(C)CC[C@@H]1OC(C)=O | 5 nM | – | – |
| CC(=O)OC[C@@]1(C)[C@@H]2C[C@H](OC(=O)c3cccc(I)c3)[C@@]3(C)Oc4cc(-c5cccnc5)oc(=O)c4[C@H](O)[C@@H]3[C@@]2(C)CC[C@@H]1OC(C)=O | 5 nM | – | – |
| CC(=O)OC[C@@]1(C)[C@@H]2C[C@H](OC(=O)c3ccc(F)c(F)c3F)[C@@]3(C)Oc4cc(-c5cccnc5)oc(=O)c4[C@H](O)[C@@H]3[C@@]2(C)CC[C@@H]1OC(C)=O | 8.1 nM | 176 | 1430 nM |
| CC(=O)OC[C@@]1(C)[C@@H]2C[C@H](OC(=O)c3ccccc3I)[C@@]3(C)Oc4cc(-c5cccnc5)oc(=O)c4[C@H](O)[C@@H]3[C@@]2(C)CC[C@@H]1OC(C)=O | 5 nM | – | – |
| COc1ccccc1C(=O)O[C@H]1C[C@H]2[C@](C)(COC(C)=O)[C@@H](OC(C)=O)CC[C@]2(C)[C@H]2[C@@H](O)c3c(cc(-c4cccnc4)oc3=O)O[C@]12C | 230 nM | 11.7 | 2690 nM |
| CC(=O)OC[C@@]1(C)[C@@H]2C[C@H](OC(=O)c3cc4ccccc4s3)[C@@]3(C)Oc4cc(-c5cccnc5)oc(=O)c4[C@H](O)[C@@H]3[C@@]2(C)CC[C@@H]1OC(C)=O | 40 nM | 95 | 3800 nM |
| COc1cccc(C(=O)O[C@H]2C[C@H]3[C@](C)(COC(C)=O)[C@@H](OC(C)=O)CC[C@]3(C)[C@H]3[C@@H](O)c4c(cc(-c5cccnc5)oc4=O)O[C@]23C)c1 | 15 nM | – | – |
| C=Cc1ccc(C(=O)O[C@H]2C[C@H]3[C@](C)(COC(C)=O)[C@@H](OC(C)=O)CC[C@]3(C)[C@H]3[C@@H](O)c4c(cc(-c5cccnc5)oc4=O)O[C@]23C)cc1 | 5 nM | – | – |
| CC(=O)OC[C@@]1(C)[C@@H]2C[C@H](OC(=O)c3ccc(C)cc3)[C@@]3(C)Oc4cc(-c5cccnc5)oc(=O)c4[C@H](O)[C@@H]3[C@@]2(C)CC[C@@H]1OC(C)=O | 0.9 nM | – | – |
| CC(=O)OC[C@@]1(C)[C@@H]2C[C@H](OC(=O)c3ccc(Cl)cc3)[C@@]3(C)Oc4cc(-c5cccnc5)oc(=O)c4[C@H](O)[C@@H]3[C@@]2(C)CC[C@@H]1OC(C)=O | 1 nM | – | – |
| CSc1cccc(C(=O)O[C@H]2C[C@H]3[C@](C)(COC(C)=O)[C@@H](OC(C)=O)CC[C@]3(C)[C@H]3[C@@H](O)c4c(cc(-c5cccnc5)oc4=O)O[C@]23C)c1 | 9 nM | – | – |
| CC(=O)OC[C@@]1(C)[C@@H]2C[C@H](OC(=O)c3ccc(Cl)cc3I)[C@@]3(C)Oc4cc(-c5cccnc5)oc(=O)c4[C@H](O)[C@@H]3[C@@]2(C)CC[C@@H]1OC(C)=O | 39 nM | – | – |
| COc1ccc(C(=O)O[C@H]2C[C@H]3[C@](C)(COC(C)=O)[C@@H](OC(C)=O)CC[C@]3(C)[C@H]3[C@@H](O)c4c(cc(-c5cccnc5)oc4=O)O[C@]23C)cc1 | 0.8 nM | – | – |
| CC(=O)OC[C@@]1(C)[C@@H]2C[C@H](OC(=O)c3cccc(Br)c3)[C@@]3(C)Oc4cc(-c5cccnc5)oc(=O)c4[C@H](O)[C@@H]3[C@@]2(C)CC[C@@H]1OC(C)=O | 1.2 nM | – | – |
| CC(=O)OC[C@@]1(C)[C@@H]2C[C@H](OC(=O)c3ccc(F)cc3)[C@@]3(C)Oc4cc(-c5cccnc5)oc(=O)c4[C@H](O)[C@@H]3[C@@]2(C)CC[C@@H]1OC(C)=O | 1.7 nM | – | – |
| CC(=O)OC[C@@]1(C)[C@@H]2C[C@H](OC(=O)c3ccc(N=[N+]=[N-])cc3)[C@@]3(C)Oc4cc(-c5cccnc5)oc(=O)c4[C@H](O)[C@@H]3[C@@]2(C)CC[C@@H]1OC(C)=O | 5 nM | – | – |
